The record followed here is US20250026721A1, “COMPOUNDS AND METHODS FOR MODULATING RAS-PI3K” (Vividion Therapeutics, Inc., priority 2023, published 2025).

The target in the test is T1, PIK3CA (Homo sapiens, UniProt P42336).
T1 construct: endogenous in cells; host or cells: Jurkat cell lysate
Nature of the test: In vitro ELISA target engagement assay for PIK3CA in Jurkat cellular lysate (competition with PIK3CA Biotin Probe). The class given is binding. The note with it: 1 hour at rt, then 500 nM PIK3CA Biotin Probe, read-out: Elisa Target Engagement Assay (TE50). Summed up: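 Jurkat lysate from sonicated frozen cells was preincubated 1 h at rt with serially diluted compound up to 200 μM, then labelled 1 h at rt with PIK3CA biotin probe at 500 nM final. Probe-bound PIK3CA was captured on antibody-coated plates and detected with Neutravidin-HRP luminescence; TE50 derived from the dose response.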
For orientation: An ELISA detects its analyte on a solid surface through an enzyme-linked reagent.

Structures are written as SMILES.

T1 sequence (P42336 whole entry): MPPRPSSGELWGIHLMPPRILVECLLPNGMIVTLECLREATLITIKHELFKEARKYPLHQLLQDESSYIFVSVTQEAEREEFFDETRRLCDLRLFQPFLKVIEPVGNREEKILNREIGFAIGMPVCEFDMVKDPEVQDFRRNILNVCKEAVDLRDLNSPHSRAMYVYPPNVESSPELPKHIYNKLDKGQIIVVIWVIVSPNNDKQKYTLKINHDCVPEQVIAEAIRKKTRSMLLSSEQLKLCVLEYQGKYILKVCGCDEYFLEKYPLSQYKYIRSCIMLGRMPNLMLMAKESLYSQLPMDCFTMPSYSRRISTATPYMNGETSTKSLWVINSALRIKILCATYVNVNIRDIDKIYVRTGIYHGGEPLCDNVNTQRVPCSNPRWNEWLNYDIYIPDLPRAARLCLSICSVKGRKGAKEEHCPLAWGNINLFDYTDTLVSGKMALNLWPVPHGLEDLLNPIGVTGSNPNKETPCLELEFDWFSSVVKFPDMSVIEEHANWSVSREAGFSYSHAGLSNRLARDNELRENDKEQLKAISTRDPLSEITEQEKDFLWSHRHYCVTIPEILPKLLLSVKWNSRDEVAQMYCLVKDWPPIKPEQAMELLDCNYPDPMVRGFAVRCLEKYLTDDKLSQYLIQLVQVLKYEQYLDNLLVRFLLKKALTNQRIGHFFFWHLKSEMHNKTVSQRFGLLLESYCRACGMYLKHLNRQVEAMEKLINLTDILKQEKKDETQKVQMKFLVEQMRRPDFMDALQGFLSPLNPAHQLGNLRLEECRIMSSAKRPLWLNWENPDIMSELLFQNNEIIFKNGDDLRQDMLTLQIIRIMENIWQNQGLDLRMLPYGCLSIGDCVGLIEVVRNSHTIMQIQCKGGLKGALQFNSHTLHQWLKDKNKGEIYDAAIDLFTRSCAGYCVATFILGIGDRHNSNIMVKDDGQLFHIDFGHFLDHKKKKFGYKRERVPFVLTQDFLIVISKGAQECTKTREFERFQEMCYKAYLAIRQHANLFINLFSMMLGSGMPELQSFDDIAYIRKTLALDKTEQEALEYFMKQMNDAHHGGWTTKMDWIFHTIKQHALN
T1 sequence (P27986 whole entry partner): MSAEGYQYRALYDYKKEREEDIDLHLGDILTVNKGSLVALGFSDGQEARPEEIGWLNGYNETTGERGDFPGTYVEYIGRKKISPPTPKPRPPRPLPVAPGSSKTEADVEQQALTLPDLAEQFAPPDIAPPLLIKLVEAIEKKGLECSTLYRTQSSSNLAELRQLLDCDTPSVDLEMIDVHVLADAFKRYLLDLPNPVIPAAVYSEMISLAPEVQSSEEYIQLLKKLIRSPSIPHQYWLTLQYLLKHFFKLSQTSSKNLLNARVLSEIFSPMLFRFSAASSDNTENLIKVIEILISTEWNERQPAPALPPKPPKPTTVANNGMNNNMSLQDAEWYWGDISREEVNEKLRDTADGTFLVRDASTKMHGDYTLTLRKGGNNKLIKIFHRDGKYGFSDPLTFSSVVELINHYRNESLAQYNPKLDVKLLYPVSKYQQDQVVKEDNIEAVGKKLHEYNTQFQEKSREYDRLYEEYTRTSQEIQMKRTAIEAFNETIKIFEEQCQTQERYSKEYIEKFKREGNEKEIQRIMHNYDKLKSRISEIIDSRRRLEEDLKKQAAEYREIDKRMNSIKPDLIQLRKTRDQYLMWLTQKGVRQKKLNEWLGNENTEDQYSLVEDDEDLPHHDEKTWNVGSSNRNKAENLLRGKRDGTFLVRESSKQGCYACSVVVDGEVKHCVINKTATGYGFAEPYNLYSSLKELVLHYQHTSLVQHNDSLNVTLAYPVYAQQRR

In the case of `COc1ccc(S(=O)(=O)N2CCC(F)(C(=O)N[C@H](C)/C=C/C(=O)N3CC(F)(F)C3)CC2)c(-c2ccccc2Cl)c1` [Compound 137, (R,E)-1-((2′-chloro-5-methoxy-[1,1′-biphenyl]-2-yl)sulfonyl)-N-(5-(3,3-difluoroazetidin-1-yl)-5-oxopent-3-en-2-yl)-4-fluoropiperidine-4-carboxamide], the IC50 was 380 nM.

In the case of `C[C@H](/C=C\S(C)(=O)=O)NC(=O)[C@@]1(F)CCCN(C(=O)[C@@H]2CN(CC(F)(F)F)C[C@@H]2c2c(F)ccc(F)c2Cl)CC1` (single isomer, unassigned) [Compound 226, (R)-1-((3*S,4*S)-4-(2-chloro-3,6-difluorophenyl)-1-(2,2,2-trifluoroethyl)pyrrolidine-3-carbonyl)-4-fluoro-N-((R,Z)-4-(methylsulfonyl)but-3-en-2-yl)azepane-4-carboxamide], the IC50 is 170 nM.

For the compound `C[C@H](/C=C\S(C)(=O)=O)NC(=O)C1(F)CCN(S(=O)(=O)c2ccc(CCO)cc2-c2ccccc2Cl)CC1` [Compound 128, (R,Z)-1-((2′-chloro-5-(2-hydroxyethyl)-[1,1′-biphenyl]-2-yl)sulfonyl)-4-fluoro-N-(4-(methylsulfonyl)but-3-en-2-yl)piperidine-4-carboxamide], the IC50 came out at 280 nM.

In the case of `C[C@H](/C=C\S(C)(=O)=O)NC(=O)C1(F)CCN(C(=O)[C@H]2CCN(C(=O)OC(C)(C)C)C[C@H]2c2ccccc2Cl)CC1` (relative stereo) [Compound 259, tert-butyl (3*R,4*S)-3-(2-chlorophenyl)-4-(4-fluoro-4-(((R,Z)-4-(methylsulfonyl)but-3-en-2-yl)carbamoyl)piperidine-1-carbonyl)piperidine-1-carboxylate], the IC50 stood at 660 nM.

For the compound `C[C@H](/C=C/S(=O)(=O)C1CNC1)NC(=O)C1(F)CCN(S(=O)(=O)c2ccc(Br)cc2-c2ccccc2Cl)CC1` [Compound 76, (R,E)-N-(4-(azetidin-3-ylsulfonyl)but-3-en-2-yl)-1-((5-bromo-2′-chloro-[1,1′-biphenyl]-2-yl)sulfonyl)-4-fluoropiperidine-4-carboxamide], the IC50 was 32 nM.

With `COc1ccc(S(=O)(=O)N2CC[C@@](F)(C(=O)N[C@H](C)/C=C\S(C)(=O)=O)C[C@@H]2C)c(-c2ccccc2Cl)c1` (single isomer, unassigned) [Compound 148, (2*S,4*S)-1-((2′-chloro-5-methoxy-[1,1′-biphenyl]-2-yl)sulfonyl)-4-fluoro-2-methyl-N-((R,Z)-4-(methylsulfonyl)but-3-en-2-yl)piperidine-4-carboxamide], the IC50 came out at 600 nM.

`COc1ccc(S(=O)(=O)N2CC[C@@](F)(C(=O)NC/C=C\C(=O)N3CC(F)(F)C3)C[C@H]2C)c(-c2ccccc2Cl)c1` [Compound 288, (2R,4S)-1-((2′-chloro-5-methoxy-[1,1′-biphenyl]-2-yl)sulfonyl)-N-((Z)-4-(3,3-difluoroazetidin-1-yl)-4-oxobut-2-en-1-yl)-4-fluoro-2-methylpiperidine-4-carboxamide]: the IC50 came to 490 nM.

For `CC(O)c1ccc(S(=O)(=O)N2CCC(F)(C(=O)N[C@H](C)/C=C\S(C)(=O)=O)CC2)c(-c2ccccc2Cl)c1` (stereo partly drawn) [Compound 129, 1-((2′-chloro-5-(1-hydroxyethyl)-[1,1′-biphenyl]-2-yl)sulfonyl)-4-fluoro-N-((R,Z)-4-(methylsulfonyl)but-3-en-2-yl)piperidine-4-carboxamide], the IC50 was 440 nM.

For `C[C@H](/C=C\[S@](C)(=N)=O)NC(=O)C1(F)CCN(S(=O)(=O)c2ccc(Br)cc2-c2ccccc2Cl)CC1` (single isomer, unassigned) [Compound 74, 1-((5-bromo-2′-chloro-[1,1′-biphenyl]-2-yl)sulfonyl)-4-fluoro-N-((R,Z)-4-((*R)-S-methylsulfonimidoyl)but-3-en-2-yl)piperidine-4-carboxamide], the IC50 was 410 nM.

As to `C[C@H](/C=C\S(C)(=O)=O)NC(=O)[C@]1(F)CCN(S(=O)(=O)c2cnc(C(F)(F)F)cc2-c2ccccc2Cl)[C@H](C)C1` [Compound 214, (2R,4S)-1-((4-(2-chlorophenyl)-6-(trifluoromethyl)pyridin-3-yl)sulfonyl)-4-fluoro-2-methyl-N-((R,Z)-4-(methylsulfonyl)but-3-en-2-yl)piperidine-4-carboxamide], the IC50 turned out to be 220 nM.

In the case of `COc1ccc(S(=O)(=O)N2CCC(OC)(C(=O)N[C@H](C)/C=C\S(C)(=O)=O)CC2)c(-c2ccccc2Cl)c1` [Compound 146, 1-[2-(2-chlorophenyl)-4-methoxy-phenyl]sulfonyl-4-methoxy-N—[(Z,1R)-1-methyl-3-methylsulfonyl-allyl]piperidine-4-carboxamide], the IC50 turned out to be 610 nM.

In the case of `COc1ccc(S(=O)(=O)N2CC[C@](F)(C(=O)N[C@H](C)/C=C\S(C)(=O)=O)C[C@H]2C)c(-c2ccccc2Cl)c1` (single isomer, unassigned) [Compound 147, (2*R,4*R)-1-((2′-chloro-5-methoxy-[1,1′-biphenyl]-2-yl)sulfonyl)-4-fluoro-2-methyl-N-((R,Z)-4-(methylsulfonyl)but-3-en-2-yl)piperidine-4-carboxamide], the IC50 amounted to 390 nM.

For the compound `CC[C@@H](/C=C/S(=O)(=O)C1CNC1)NC(=O)C1(F)CCN(S(=O)(=O)c2ccc(Br)cc2-c2ccccc2Cl)CC1` [Compound 78, (S,E)-N-(1-(azetidin-3-ylsulfonyl)pent-1-en-3-yl)-1-((5-bromo-2′-chloro-[1,1′-biphenyl]-2-yl)sulfonyl)-4-fluoropiperidine-4-carboxamide], the IC50 stood at 461 nM.

Regarding `COc1cccc(-c2ccccc2S(=O)(=O)N2CCC(F)(C(=O)N[C@@H](C)/C=C\S(C)(=O)=O)CC2)c1` [Compound 19, (S,Z)-4-fluoro-1-((3′-methoxy-[1,1′-biphenyl]-2-yl)sulfonyl)-N-(4-(methylsulfonyl)but-3-en-2-yl)piperidine-4-carboxamide], the IC50 was determined as 744 nM.

Turning to `O=C(N[C@@H]1C=CS(=O)(=O)C1)C1(F)CCN(S(=O)(=O)c2ccc(Br)cc2-c2ccccc2Cl)CC1` [Compound 66, (R)-1-((5-bromo-2′-chloro-[1,1′-biphenyl]-2-yl)sulfonyl)-N-(1,1-dioxido-2,3-dihydrothiophen-3-yl)-4-fluoropiperidine-4-carboxamide], the IC50 turned out to be 37.9 nM.

As to `C[C@H](/C=C/C(=O)N1CC(F)(F)C1)NC(=O)[C@]1(F)CCN(S(=O)(=O)c2ccc(C(F)(F)F)cc2-c2ccccc2Cl)[C@H](C)C1` [Compound 152, (2R,4S)-1-((2′-chloro-5-(trifluoromethyl)-[1,1′-biphenyl]-2-yl)sulfonyl)-N-((R,E)-5-(3,3-difluoroazetidin-1-yl)-5-oxopent-3-en-2-yl)-4-fluoro-2-methylpiperidine-4-carboxamide], the IC50 is 450 nM.

`C[C@@H](C#CC(=O)N(C)C)NC(=O)C1(F)CCN(S(=O)(=O)c2ccc(Br)cc2-c2ccccc2Cl)CC1` [Compound 281, (S)-1-((5-bromo-2′-chloro-[1,1′-biphenyl]-2-yl)sulfonyl)-N-(5-(dimethylamino)-5-oxopent-3-yn-2-yl)-4-fluoropiperidine-4-carboxamide]: the IC50 worked out at 160 nM.

`C[C@H](C#CC(=O)N(C)C)NC(=O)C1(F)CCN(S(=O)(=O)c2ccc(Br)cc2-c2ccccc2Cl)CC1` [Compound 280, (R)-1-((5-bromo-2′-chloro-[1,1′-biphenyl]-2-yl)sulfonyl)-N-(5-(dimethylamino)-5-oxopent-3-yn-2-yl)-4-fluoropiperidine-4-carboxamide]: the IC50 worked out at 150 nM.

Turning to `C[C@H](/C=C\S(C)(=O)=O)NC(=O)C1(F)CCN(C(=O)[C@H]2CN(CC(F)(F)F)C[C@H]2c2ccccc2Cl)CC1` [Compound 163, 1-((3R,4R)-4-(2-chlorophenyl)-1-(2,2,2-trifluoroethyl)pyrrolidine-3-carbonyl)-4-fluoro-N-((R,Z)-4-(methylsulfonyl)but-3-en-2-yl)piperidine-4-carboxamide], the IC50 is 500 nM.

Turning to `C[C@H](/C=C\S(C)(=O)=O)NC(=O)[C@]1(F)CCN(S(=O)(=O)c2ccc(C#N)cc2-c2ccccc2Cl)[C@H](C)C1` [Compound 144, (2R,4S)-1-((2′-chloro-5-cyano-[1,1′-biphenyl]-2-yl)sulfonyl)-4-fluoro-2-methyl-N-((R,Z)-4-(methylsulfonyl)but-3-en-2-yl)piperidine-4-carboxamide], the IC50 is 55 nM.

Take `COc1ccc(S(=O)(=O)N2CCC(F)(C(=O)N[C@H](/C=C\S(C)(=O)=O)CC(F)(F)F)CC2)c(-c2ccccc2Cl)c1` (single isomer, unassigned) [Compound 239, (*S,Z)-1-((2′-chloro-5-methoxy-[1,1′-biphenyl]-2-yl)sulfonyl)-4-fluoro-N-(5,5,5-trifluoro-1-(methylsulfonyl)pent-1-en-3-yl)piperidine-4-carboxamide]: the IC50 came out at 280 nM.

Take `CCc1ccccc1-c1cc(Br)ccc1S(=O)(=O)N1CCC(F)(C(=O)N[C@H](C)/C=C\S(C)(=O)=O)CC1` [Compound 51, (R,Z)-1-((5-bromo-2′-ethyl-[1,1′-biphenyl]-2-yl)sulfonyl)-4-fluoro-N-(4-(methylsulfonyl)but-3-en-2-yl)piperidine-4-carboxamide]: the IC50 was found to be 550 nM.

For `C[C@H](/C=C\S(C)(=O)=O)NC(=O)C1(F)CCN(C(=O)[C@H]2CN(CC(F)(F)C(F)(F)F)C[C@H]2c2ccccc2Cl)CC1` [Compound 182, 1-((3R,4R)-4-(2-chlorophenyl)-1-(2,2,3,3,3-pentafluoropropyl)pyrrolidine-3-carbonyl)-4-fluoro-N-((R,Z)-4-(methylsulfonyl)but-3-en-2-yl)piperidine-4-carboxamide], the IC50 was 910 nM.

For the compound `C[C@H](/C=C\S(C)(=O)=O)NC(=O)C1(F)CCN(C(=O)[C@H]2CCN(CC(F)(F)F)C[C@@H]2c2ccccc2Cl)CC1` (single isomer, unassigned) [Compound 307, 1-((3*S,4*S)-3-(2-chlorophenyl)-1-(2,2,2-trifluoroethyl)piperidine-4-carbonyl)-4-fluoro-N-((R,Z)-4-(methylsulfonyl)but-3-en-2-yl)piperidine-4-carboxamide], the IC50 was determined as 845 nM.
